Here are results for nine compounds from PubChem BioAssay (NCI).

Some test systems named below: RXF 393 renal; MDA-MB-435; SNB-19 CNS; OVCAR-5 ovarian; A498 renal; SK-OV-3 ovarian; M14 melanoma; SF-539 CNS; NCI-H226 lung; HS 578T breast.
Common to all, as to test: NCI-60 cell line screen, 48 h

“And” between values parts separate entries of the source, which are not always exact repeats. Equal entries are not always repeated.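 How tested: cells in 96-well plates exposed to compound for 48 hours at five concentrations. GI50: concentration for 50% inhibition of growth. TGI: total growth inhibition.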 Bounds are passed on as bounds.

With `O=c1oc2c(C(F)(F)F)cccc2cc1-c1csc(Nc2ccc(OCCF)cc2)n1`, the GI50 in the experiment on RXF 393 renal is 0.0343 µM; in the experiment on MDA-MB-435, 0.0324 µM; in the experiment on SNB-19 CNS, 0.0873 µM; in the experiment on OVCAR-5 ovarian, 0.231 µM; with A498 renal, 0.0353 µM; with SK-OV-3 ovarian, 0.041 µM. Moreover, the GI50 is 0.0282 µM with M14 melanoma, 0.0248 µM in the experiment with SF-539 CNS, 0.587 µM in the experiment on NCI-H226 lung and 0.051 µM in the experiment on HS 578T breast. Further, the TGI in the experiment with RXF 393 renal is 18.2 µM; in the experiment with MDA-MB-435 it was over 100 µM; in the experiment with SNB-19 CNS it was over 56.4 µM; in the experiment with OVCAR-5 ovarian it was over 100 µM; with A498 renal it was 20.9 µM; in the experiment on SK-OV-3 ovarian it was 23.2 µM. Further, the TGI in the experiment with M14 melanoma is 1.14 µM; in the experiment with SF-539 CNS, 0.07 µM; in the experiment with NCI-H226 lung, 72.3 µM; in the experiment with HS 578T breast, over 69.4 µM.
`CCN(c1cc(C#CCN2CCOCC2)cc(C(=O)NCc2c(C)cc(C)[nH]c2=O)c1C)C1CCC(N(C)CCOC)CC1` (configuration not stated): the GI50 with RXF 393 renal, in the experiment with MDA-MB-435, in the experiment on SNB-19 CNS, with OVCAR-5 ovarian, in the experiment on A498 renal and in the experiment on SK-OV-3 ovarian was over 100 µM in each case. The GI50 in the experiment on M14 melanoma, with SF-539 CNS, in the experiment on NCI-H226 lung and in the experiment on HS 578T breast was over 100 µM each time. Also, the TGI with RXF 393 renal, in the experiment with MDA-MB-435, with SNB-19 CNS, with OVCAR-5 ovarian, in the experiment with A498 renal and in the experiment on SK-OV-3 ovarian was over 100 µM in each case. For the same compound, the TGI in the experiment on M14 melanoma, in the experiment on SF-539 CNS, in the experiment with NCI-H226 lung and with HS 578T breast was over 100 µM in each case.
Take `Cc1c([N+](=O)[O-])oc2ccc3ccccc3c12`: the TGI in the experiment with RXF 393 renal, in the experiment with MDA-MB-435, in the experiment on SNB-19 CNS, with OVCAR-5 ovarian, with A498 renal and in the experiment on SK-OV-3 ovarian was over 100 µM throughout. For the same compound, the TGI in the experiment with M14 melanoma, in the experiment with SF-539 CNS, with NCI-H226 lung and in the experiment on HS 578T breast was over 100 µM each time.
Consider `O=C1C(Cl)=C(Nc2cccc(O)c2)C(=O)N1Cc1ccc(Cl)cc1Cl`, for which the GI50 in the experiment on RXF 393 renal was 1.06 µM; with MDA-MB-435, 6.72 µM; in the experiment on SNB-19 CNS it was 3.39 µM; with OVCAR-5 ovarian, 11.7 µM; with A498 renal it was 1.57 µM; in the experiment on SK-OV-3 ovarian, 9.43 µM. Besides, the GI50 is 8.18 µM with M14 melanoma, 0.561 µM in the experiment on SF-539 CNS, 1.11 µM in the experiment with NCI-H226 lung and 1.66 µM with HS 578T breast. Also, the TGI with RXF 393 renal amounted to 11.1 µM; in the experiment with MDA-MB-435 it was 19.5 µM; with SNB-19 CNS, 33.8 µM; with OVCAR-5 ovarian, 29.2 µM; in the experiment on A498 renal it was 10.2 µM; in the experiment on SK-OV-3 ovarian, 23.7 µM. Moreover, the TGI with M14 melanoma came to 22.8 µM; in the experiment on SF-539 CNS, 13.8 µM; in the experiment on NCI-H226 lung, 20.4 µM; in the experiment with HS 578T breast, 21.8 µM.
Regarding `O=C(NC(=S)Nc1cc(Cl)ccc1O)c1cccc(Br)c1`, the GI50 with RXF 393 renal is 18.7 µM; in the experiment on MDA-MB-435 it was 13.9 µM; in the experiment on SNB-19 CNS, 8.78 µM; in the experiment on OVCAR-5 ovarian, 57.1 µM; in the experiment with A498 renal it was 4.8 µM; in the experiment with SK-OV-3 ovarian it was 19.4 µM. Moreover, the GI50 was 26.3 µM in the experiment with M14 melanoma, 7.58 µM with SF-539 CNS, 28.6 µM in the experiment on NCI-H226 lung and 6.85 µM in the experiment on HS 578T breast. The TGI was 92.3 µM in the experiment with RXF 393 renal; over 100 µM with MDA-MB-435; over 100 µM in the experiment on SNB-19 CNS; over 100 µM in the experiment with OVCAR-5 ovarian; 51.9 µM in the experiment with A498 renal; over 100 µM in the experiment with SK-OV-3 ovarian. Further, the TGI is over 100 µM in the experiment on M14 melanoma, 35.8 µM with SF-539 CNS, over 100 µM with NCI-H226 lung and 41 µM with HS 578T breast.
`CNCCN=c1ccc2c3c1c(O)c1c(O)ccc(=O)c1c3[nH]n2CCNCCO`: the GI50 in the experiment with RXF 393 renal was 0.744 µM and 0.173 µM; in the experiment with SNB-19 CNS it was 0.0308 µM and 0.11 µM; in the experiment on OVCAR-5 ovarian it was 0.9 µM; with A498 renal, 0.102 µM and 0.405 µM; with SK-OV-3 ovarian, 0.137 µM and 0.162 µM; in the experiment on M14 melanoma, 0.397 µM and 1.19 µM. Moreover, the GI50 in the experiment on SF-539 CNS is 0.0576 µM; in the experiment on NCI-H226 lung it was 0.000924 µM. Further, the TGI was 2.54 µM and 1.25 µM in the experiment with RXF 393 renal; 3.32 µM in the experiment with MDA-MB-435; 3.36 µM and 11.5 µM in the experiment on OVCAR-5 ovarian; 1.14 µM and 5.15 µM in the experiment on A498 renal; 3.25 µM and 5.72 µM with SK-OV-3 ovarian; 3.41 µM and 10.4 µM in the experiment with M14 melanoma. In addition, the TGI was 1.32 µM with SF-539 CNS, 0.336 µM in the experiment with NCI-H226 lung and 1.41 µM in the experiment with HS 578T breast.
Turning to `O=C(O)C(Oc1nc(=S)[nH]c(=S)[nH]1)(c1ccc(Cl)cc1)c1ccc(Cl)cc1`, the TGI with RXF 393 renal, in the experiment on MDA-MB-435, with SNB-19 CNS, in the experiment on OVCAR-5 ovarian, with A498 renal and in the experiment on SK-OV-3 ovarian was over 100 µM each time. Further, the TGI in the experiment with M14 melanoma, in the experiment with SF-539 CNS, in the experiment with NCI-H226 lung and with HS 578T breast was over 100 µM in each case.
Turning to `CC(C)=CCCC(C)C1=C(O)C(=O)C(C)=CC1=O` (configuration not stated), the TGI in the experiment with RXF 393 renal is 17.8 µM; with MDA-MB-435 it was 43.5 µM; in the experiment with SNB-19 CNS, over 62.4 µM; with OVCAR-5 ovarian, 33.5 µM; with A498 renal, 35.1 µM; with SK-OV-3 ovarian, 78.5 µM. Moreover, the TGI with M14 melanoma was 36 µM; with SF-539 CNS, 41.9 µM; with NCI-H226 lung, 47.5 µM; in the experiment on HS 578T breast, over 79.3 µM.
Take `CCN(CC)C(=S)[S][Bi]([S]C(=S)N(CC)CC)[S]C(=S)N(CC)CC`: the GI50 was 0.183 µM in the experiment with RXF 393 renal; 0.984 µM with MDA-MB-435; 1.71 µM in the experiment with SNB-19 CNS; 0.539 µM in the experiment on OVCAR-5 ovarian; 1.24 µM with A498 renal; 1.74 µM in the experiment on SK-OV-3 ovarian. For the same compound, the GI50 is 0.218 µM with M14 melanoma, 0.195 µM in the experiment on SF-539 CNS, 2.07 µM in the experiment on NCI-H226 lung and 2.64 µM in the experiment with HS 578T breast. The TGI in the experiment on RXF 393 renal came to 0.36 µM; with MDA-MB-435, 2.2 µM; in the experiment with SNB-19 CNS it was 3.08 µM; in the experiment with OVCAR-5 ovarian it was 1.07 µM; in the experiment on A498 renal, 2.49 µM; in the experiment on SK-OV-3 ovarian, 3.14 µM. Moreover, the TGI is 0.485 µM in the experiment on M14 melanoma, 0.436 µM in the experiment on SF-539 CNS, 4.18 µM in the experiment with NCI-H226 lung and 5.87 µM in the experiment with HS 578T breast.
